{
  "source": "patent US20210302366A1",
  "about": "“Method for Pathogen Detection” (priority 2020, published 2021)",
  "key": {"Pseudomonas aeruginosa": {"test_system": "Pseudomonas aeruginosa", "experiment": "pathogen detection chip (differential drain current) with agar plating, Pseudomonas aeruginosa", "type": "cell-based", "conditions": "for biological sample resistant or sensitive to the interacting agent: from electrical signal pattern and CFU; for trend of number of colony-forming unit (CFU) from agar plating: over the course of culturing", "source_text": "(§1) The drain voltage Vds may cause a drain current Ids to be measured as the electrical signal. In some embodiments, during the course of culturing the biological sample 207A, metabolites and/or the ions of the biological sample 207A generated due to the interaction of which with the interacting agents 207B may cause the front gate voltage Vgs-fg to change and thus the change of drain voltage Vds as well as the measured drain current Ids. By analyzing the electrical signal of the differential drain current ΔIds, several characteristics of the biological sample 207A can be determined within a short time frame and at a relative low sample concentration. In some embodiments, the sensor 20 may occupies a footprint of 5 μm by 5 μm. A bias of +1.8V can be applied to the first gate 209 and a bias of −0.5V can be applied to the second gate 209′ during the measurement of drain current Ids.\n(§2) Two approaches can be used to measure the differential drain current ΔIds. One approach is to subtract the drain current Ids measured from a control group of the sensor 20 where no biological sample is introduced into the culturing medium 207 from the drain current Ids measured from an experimental group of the sensor 20 where biological sample is introduced into the culturing medium 207 during the course of culturing. The other approach is to subtract the initial drain current Ids (e.g. at t=0) from the drain current Ids measured from an experimental group of the sensor 20 where biological sample is introduced into the culturing medium 207 during the course of culturing. The latter approach can be adopted for real-time pathogen detection, and the former approach can be adopted in a more systematic study where the concentration of biological sample and the pH value of the culturing medium 207 can be recorded simultaneously.\n(§3) To prepare the culturing medium, 200 μL of non-buffered LB broth having predetermined dosages (including zero dosage) of interacting agent was inoculated with predetermined concentration of Pseudomonas aeruginosa and cultured at a temperature of 37° C. The sample was subjected to the pathogen detection using the pathogen detection chip and sensor described herein with a front gate voltage of +1.8V and a back gate voltage of −0.5V for drain current Ids measurement at predetermined time points (e.g., at each hour). The differential drain current ΔIds can be determined using the two approaches previously described, including (1) subtracting the drain current Ids measured from a control group from the drain current Ids measured from an experimental group during the course of culturing; and (2) subtracting the initial drain current Ids (e.g. at t=0) from the drain current Ids measured from an experimental group during the course of culturing. When the former approach is taken, the concentration of biological sample can be determined by agar plating under the same environmental condition.\nSample preparation and measurement condition can be referred to those in Example 3A and are not repeated here for brevity. […] For example, in Example 3B, a differential drain current ΔIds of about 0.16 μA can be identified as a blip in the electrical signal."}, "Staphylococcus aureus": {"test_system": "Staphylococcus aureus", "experiment": "pathogen detection chip (differential drain current) with agar plating, Staphylococcus aureus", "type": "cell-based", "conditions": "for blips/sub-blips identified in the electrical signal: first 8 hours of culturing; for biological sample resistant or sensitive to the interacting agent: from electrical signal pattern and CFU; for trend of number of colony-forming unit (CFU) from agar plating: over the course of culturing", "source_text": "as §1, §2\nas §3, with “Staphylococcus aureus” for “Pseudomonas aeruginosa”\nSample preparation and measurement condition can be referred to those in Example 2A and are not repeated here for brevity."}, "Escherichia coli K12": {"test_system": "Escherichia coli K12", "experiment": "minimum inhibitory concentration (MIC) test", "type": "cell-based"}, "Escherichia coli": {"test_system": "Escherichia coli", "experiment": "pathogen detection chip (differential drain current) with agar plating, Escherichia coli", "type": "cell-based", "conditions": "for differential drain current ΔIds, local maximum: 2nd hour of culturing", "source_text": "as §1, §2\nas §3, with “Escherichia coli” for “Pseudomonas aeruginosa”\nSample preparation and measurement condition can be referred to those in Example 4A and are not repeated here for brevity. […] For example, in Example 4B, a differential drain current ΔIds of greater than 0.07 μA (e.g., about 0.08 μA) can be identified as a blip in the electrical signal. In addition, a differential drain current ΔIds of about 0.04 μA can be identified as a sub-blip at the 6th hour. As previously described, electrical signal lower than 0.03 μA is not considered as a blip or a sub-blip in some of the embodiments."}, "Escherichia coli pku57": {"test_system": "Escherichia coli pku57", "experiment": "microbe, parasite or virus in culture", "description": "To prepare the culturing medium, 200 μL of non-buffered LB broth having predetermined dosages (including zero dosage) of interacting agent was inoculated with predetermined concentration of Escherichia coli and cultured at a temperature of 37° C. The sample was subjected to the pathogen detection using the pathogen detection chip and sensor described herein with a front gate voltage of +1.8V and a back gate voltage of −0.5V for drain current Ids measurement at predetermined time points (e.g., at each hour). The differential drain current ΔIds can be determined using the two approaches previously described, including (1) subtracting the drain current Ids measured from a control group from the drain current Ids measured from an experimental group during the course of culturing; and (2) subtracting the initial drain current Ids (e.g. at t=0) from the drain current Ids measured from an experimental group during the course of culturing. When the former approach is taken, the concentration of biological sample can be determined by agar plating under the same environmental condition."}, "Klebsiella pneumoniae": {"test_system": "Klebsiella pneumoniae", "experiment": "pathogen detection chip (differential drain current) with agar plating, Klebsiella pneumoniae", "type": "cell-based", "excerpt": "The drain voltage Vds may cause a drain current Ids to be measured as the electrical signal. In some embodiments, during the course of culturing the biological sample 207A, metabolites and/or the ions of the biological sample 207A generated due to the interaction of which with the interacting agents 207B may cause the front gate voltage Vgs-fg to change and thus the change of drain voltage Vds as well as the measured drain current Ids. By analyzing the electrical signal of the differential drain current ΔIds, several characteristics of the biological sample 207A can be determined within a short time frame and at a relative low sample concentration. […] A bias of +1.8V can be applied to the first gate 209 and a bias of −0.5V can be applied to the second gate 209′ during the measurement of drain current Ids.\nTo prepare the culturing medium, 200 μL of non-buffered LB broth having predetermined dosages (including zero dosage) of interacting agent was inoculated with predetermined concentration of Klebsiella pneumoniae and cultured at a temperature of 37° C. […]"}, "[1]": {"conditions": "from electrical signal pattern and CFU"}, "[2]": {"conditions": "throughout the first 9 hour of culturing"}},
  "data": [
    {"molecule": "CC1(C)S[C@@H]2[C@H](NC(=O)[C@H](N)c3ccccc3)C(=O)N2[C@H]1C(=O)O", "note": "[Ampicillin]", "values": [
      {"measurement": "differential drain current ΔIds, blip", "setting": "Pseudomonas aeruginosa; 1st hour of culturing", "value": "about 0.16 μA"},
      {"measurement": "biological sample resistant or sensitive to the interacting agent", "setting": "Pseudomonas aeruginosa", "value": "resistant"},
      {"measurement": "trend of number of colony-forming unit (CFU) from agar plating", "setting": "Pseudomonas aeruginosa", "value": "monotonic increasing"},
      {"measurement": "blips/sub-blips identified in the electrical signal", "setting": "Staphylococcus aureus", "value": "no blips or sub-blips (a differential drain current ΔIds showing local maximum lower than 0.03 μA is not identified as a blip or a sub-blip)"},
      {"measurement": "biological sample resistant or sensitive to the interacting agent", "setting": "Staphylococcus aureus", "value": "sensitive"},
      {"measurement": "trend of number of colony-forming unit (CFU) from agar plating", "setting": "Staphylococcus aureus", "value": "monotonic decreasing"},
      {"measurement": "differential drain current ΔIds", "setting": "Staphylococcus aureus; throughout the first 8 hour of culturing", "value": "lower than 0.03 μA"}
    ]},
    {"molecule": "NC[C@H]1O[C@H](O[C@H]2[C@H](O)[C@@H](O[C@H]3O[C@H](CO)[C@@H](O)[C@H](N)[C@H]3O)[C@H](N)C[C@@H]2N)[C@H](O)[C@@H](O)[C@@H]1O", "note": "[Kanamycin]", "values": [
      {"measurement": "MIC", "setting": "Escherichia coli K12", "value": 25, "unit": "µg/mL"},
      {"measurement": "differential drain current ΔIds, local maximum", "setting": "Escherichia coli", "value": "about 0.08 μA"},
      {"measurement": "differential drain current ΔIds, sub-blip", "setting": "Escherichia coli; 6th hour of culturing", "value": "about 0.04 μA"},
      {"measurement": "MIC", "setting": "Escherichia coli pku57", "value": "< 50", "unit": "µg/mL"}
    ]},
    {"molecule": "CN[C@@H]1[C@H](O)[C@H](NC)[C@H]2O[C@@]3(O)C(=O)C[C@@H](C)O[C@H]3O[C@@H]2[C@H]1O", "note": "[Spectinomycin]", "values": [
      {"measurement": "differential drain current ΔIds, local maximum", "setting": "Escherichia coli", "value": "about 0.05 μA"},
      {"measurement": "biological sample resistant or sensitive to the interacting agent", "setting": "Escherichia coli; [1]", "value": "sensitive"},
      {"measurement": "trend of number of colony-forming unit (CFU) from agar plating", "setting": "Escherichia coli; over the course of culturing", "value": "neither increasing or decreasing"},
      {"measurement": "differential drain current ΔIds", "setting": "Escherichia coli; [2]", "value": "lower than 0.07 μA"}
    ]},
    {"molecule": "Gentamicin", "values": [
      {"measurement": "blips/sub-blips identified in the electrical signal", "setting": "Pseudomonas aeruginosa; first 9 hour of culturing", "value": "no blips or sub-blips (a differential drain current ΔIds showing local maximum lower than 0.03 μA is not identified as a blip or a sub-blip)"},
      {"measurement": "biological sample resistant or sensitive to the interacting agent", "setting": "Pseudomonas aeruginosa", "value": "sensitive"},
      {"measurement": "trend of number of colony-forming unit (CFU) from agar plating", "setting": "Pseudomonas aeruginosa", "value": "monotonic decreasing"},
      {"measurement": "differential drain current ΔIds", "setting": "Pseudomonas aeruginosa; [2]", "value": "lower than 0.03 μA"},
      {"measurement": "differential drain current ΔIds, blip", "setting": "Klebsiella pneumoniae; 3rd hour of culturing, LB broth, 37° C.", "value": "about 0.15 μA"},
      {"measurement": "biological sample resistant or sensitive to the interacting agent", "setting": "Klebsiella pneumoniae; [1]", "value": "resistant"},
      {"measurement": "trend of number of colony-forming unit (CFU) from agar plating", "setting": "Klebsiella pneumoniae; over the course of culturing", "value": "monotonic increasing"},
      {"measurement": "blips/sub-blips identified in the electrical signal", "setting": "Staphylococcus aureus", "value": "a blip at the 2nd hour and a sub-blip at the 5th hour"},
      {"measurement": "biological sample resistant or sensitive to the interacting agent", "setting": "Staphylococcus aureus", "value": "resistant"},
      {"measurement": "trend of number of colony-forming unit (CFU) from agar plating", "setting": "Staphylococcus aureus", "value": "monotonic increasing"}
    ]}
  ]
}
